According to ChEMBL document CHEMBL1667825, “Synthesis of cross-reactive carbohydrate determinants fragments as tools for in vitro allergy diagnosis” (Bioorg Med Chem, 2011):
Active and inactive are the calls of the source. The calls are words filed in the database; no cut-off is given here.

Assays:
Oryctolagus cuniculus [1] = species: Oryctolagus cuniculus; assay: Binding affinity to rabbit anti-HRP immunoglobulin G antibody at 5 ug/ml using p-nitrophenyl-phosphate substrate after 15 mins by ELISA
Homo sapiens = species: Homo sapiens; assay: Binding affinity to human anti-bromelain immunoglobulin E in multiple pollen sensitised patient serum using after 30 mins by ELISA
Oryctolagus cuniculus [2] = species: Oryctolagus cuniculus; assay: Binding affinity to rabbit anti-bee venom immunoglobulin G antibody at 5 ug/ml using p-nitrophenyl-phosphate substrate after 15 mins by ELISA

| Compound | Activity (Oryctolagus cuniculus [1]) | Activity (Homo sapiens) | Activity (Oryctolagus cuniculus [2]) |
| --- | --- | --- | --- |
| O=C(CCCCCO[C@@H]1O[C@H](CO[C@H]2O[C@H](CO)[C@@H](O)[C@H](O)[C@@H]2O)[C@@H](O)[C@H](O)[C@@H]1O[C@@H]1OC[C@@H](O)[C@H](O)[C@H]1O)NCCCCCCNC(=O)CCCC[C@@H]1SC[C@@H]2NC(=O)N[C@@H]21 | Active |  |  |
| O=C(CCCCCO[C@@H]1O[C@H](CO[C@H]2O[C@H](CO)[C@@H](O)[C@H](O)[C@@H]2O)[C@@H](O)[C@H](O[C@@H]2O[C@@H](CO)[C@H](O)[C@@H](O)[C@H]2O)[C@@H]1O[C@@H]1OC[C@@H](O)[C@H](O)[C@H]1O)NCCCCCCNC(=O)CCCC[C@@H]1SC[C@@H]2NC(=O)N[C@@H]21 | Active | Active |  |
| CC(=O)N[C@H]1[C@H](O[C@H]2[C@H](O[C@@H]3O[C@@H](C)[C@@H](O)[C@@H](O)[C@@H]3O)[C@@H](NC(C)=O)[C@H](OCCCCCC(=O)NCCCCCCNC(=O)CCCC[C@H]3[C@H]4NC(=O)N[C@H]4CS3(=O)=O)O[C@@H]2CO)O[C@H](CO)[C@@H](O)[C@@H]1O | Active | Active |  |
| CC(=O)N[C@H]1[C@H](O[C@H]2[C@H](O[C@@H]3O[C@@H](C)[C@@H](O)[C@@H](O)[C@@H]3O)[C@@H](NC(C)=O)[C@H](OCCCCCC(=O)NCCCCCCNC(=O)CCCC[C@H]3[C@H]4NC(=O)N[C@H]4CS3(=O)=O)O[C@@H]2CO[C@H]2O[C@H](C)[C@H](O)[C@H](O)[C@H]2O)O[C@H](CO)[C@@H](O)[C@@H]1O | Active | Active | inactive |
